# According to the supplement of paper PMC10307832:
# What was measured:
# Assay in all cases: relative viability (nuclei count vs DMSO), 5 days (fraction); higher = more cells survive
# [1] = test system: ABC-1
# Procedure, shortened: (§1)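 Relative viability was taken as the ratio of nuclei in treated wells to nuclei in vehicle wells. Lung cancer cell lines in 1536-well plates received compounds by pin tool one day after seeding, either one drug alone or a fixed anchor-drug dose plus five library-drug doses (not always all listed) in √10 steps. Nuclei were counted on 4× images after 5 days of treatment, and values are medians of duplicate plates.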
# [2] = test system: CAL-12T
# Procedure, shortened: as §1
# [3] = test system: ChaGo-K-1
# Procedure, shortened: as §1
# [4] = test system: EPLC-272H
# Procedure, shortened: as §1
# [5] = test system: HCC-366
# Procedure, shortened: as §1
# [6] = test system: HCC-78
# Procedure, shortened: as §1
# [7] = test system: LC-2-ad
# Procedure, shortened: as §1
# [8] = test system: LOU-NH91
# Procedure, shortened: as §1
# [9] = test system: LU99A
# Procedure, shortened: as §1
# [10] = test system: NCI-H1395
# Procedure, shortened: as §1
# [11] = test system: NCI-H1651
# Procedure, shortened: as §1
# [12] = test system: NCI-H1734
# Procedure, shortened: as §1
smiles,measurement,setting,value
COc1cc(N2CCC(C(N)=O)CC2)ccc1Nc1nc(N)c(Cl)c(Nc2ccccc2S(=O)(=O)C(C)C)n1 [HG-5-88-01] + CC(=O)c1c(C)c2cnc(Nc3ccc(N4CCNCC4)cn3)nc2n(C2CCCC2)c1=O [Palbociclib] (partner 0.5 µM),relative viability,[1]; first compound 0.04 µM,0.667
same,relative viability,[1]; first compound 0.1265 µM,0.664
same,relative viability,[1]; first compound 0.4 µM,0.764
same,relative viability,[1]; first compound 1.265 µM,0.583
same,relative viability,[1]; first compound 4 µM,0.626
same,relative viability,[2]; first compound 0.04 µM,0.509
same,relative viability,[2]; first compound 0.1265 µM,0.552
same,relative viability,[2]; first compound 0.4 µM,0.405
same,relative viability,[2]; first compound 1.265 µM,0.214
same,relative viability,[2]; first compound 4 µM,0.211
same,relative viability,[3]; first compound 0.04 µM,0.931
same,relative viability,[3]; first compound 0.1265 µM,0.813
same,relative viability,[3]; first compound 0.4 µM,0.881
same,relative viability,[3]; first compound 1.265 µM,0.959
same,relative viability,[3]; first compound 4 µM,0.881
same,relative viability,[4]; first compound 0.04 µM,0.342
same,relative viability,[4]; first compound 0.1265 µM,0.342
same,relative viability,[4]; first compound 0.4 µM,0.335
same,relative viability,[4]; first compound 1.265 µM,0.273
same,relative viability,[4]; first compound 4 µM,0.0966
same,relative viability,[5]; first compound 0.04 µM,0.397
same,relative viability,[5]; first compound 0.1265 µM,0.41
same,relative viability,[5]; first compound 0.4 µM,0.356
same,relative viability,[5]; first compound 1.265 µM,0.41
same,relative viability,[5]; first compound 4 µM,0.465
same,relative viability,[6]; first compound 0.04 µM,0.465
same,relative viability,[6]; first compound 0.1265 µM,0.424
same,relative viability,[6]; first compound 0.4 µM,0.497
same,relative viability,[6]; first compound 1.265 µM,0.421
same,relative viability,[6]; first compound 4 µM,0.44
same,relative viability,[7]; first compound 0.04 µM,0.471
same,relative viability,[7]; first compound 0.1265 µM,0.431
same,relative viability,[7]; first compound 0.4 µM,0.449
same,relative viability,[7]; first compound 1.265 µM,0.474
same,relative viability,[7]; first compound 4 µM,0.516
same,relative viability,[8]; first compound 0.04 µM,0.533
same,relative viability,[8]; first compound 0.1265 µM,0.491
same,relative viability,[8]; first compound 0.4 µM,0.585
same,relative viability,[8]; first compound 1.265 µM,0.509
same,relative viability,[8]; first compound 4 µM,0.55
same,relative viability,[9]; first compound 0.04 µM,0.434
same,relative viability,[9]; first compound 0.1265 µM,0.39
same,relative viability,[9]; first compound 0.4 µM,0.384
same,relative viability,[9]; first compound 1.265 µM,0.32
same,relative viability,[9]; first compound 4 µM,0.305
same,relative viability,[10]; first compound 0.04 µM,0.593
same,relative viability,[10]; first compound 0.1265 µM,0.754
same,relative viability,[10]; first compound 0.4 µM,0.613
same,relative viability,[10]; first compound 1.265 µM,0.474
same,relative viability,[10]; first compound 4 µM,0.664
same,relative viability,[11]; first compound 0.04 µM,0.571
same,relative viability,[11]; first compound 0.1265 µM,0.51
same,relative viability,[11]; first compound 0.4 µM,0.517
same,relative viability,[11]; first compound 1.265 µM,0.458
same,relative viability,[11]; first compound 4 µM,0.616
same,relative viability,[12]; first compound 0.04 µM,0.367
same,relative viability,[12]; first compound 0.1265 µM,0.301
same,relative viability,[12]; first compound 0.4 µM,0.326
same,relative viability,[12]; first compound 1.265 µM,0.33
same,relative viability,[12]; first compound 4 µM,0.312
